# Values quoted from earlier work, collected in patent publication US20100285098A1, “ADHERING TROCHES WITH SANTACID FOR TREATMENT OF THROAT ESOPHAGUS AND STOMACH” (priority 2007, published 2010).
SMILES,suppression of Helicobacter pylori (Helicobacter pylori),suppression of Streptococcus pyogenes (Streptococcus pyogenes),absorbed into the blood (delivered to the stomach such as by capsule) [%],inhaled dose systemically absorbed (delivered topically by dry powder inhaler),excretion (in vivo),metabolism by the body (in vivo),side effects (other than those caused by the delivery vehicle)
OC[C@@H](O)[C@H](O)[C@@H](O)CO [xylitol],suppressed,suppressed,–,–,–,–,–
"CC(=O)N[C@H]1[C@H]([C@H](O)[C@H](O)CO)OC(C(=O)O)=C[C@@H]1N=C(N)N [Zanamavir, zanamavir]",–,–,2,4-17%,excreted in the urine without change,not metabolized,Rare side effects
